Source: a melting point compilation (Tetko et al.; mined from patent text by program, amines drawn as free bases though some values may be those of a salt)

Structure (SMILES)	melting point
COc1ccc(F)cc1OCCCl	35 to 38 °C
CC(=O)NC(C)(C)c1ccc(CN2CCN(c3nccs3)CC2)cc1	118 to 120 °C
CC(C)Oc1c(C(=O)Nc2nnn[nH]2)sc2c1CN(C(=O)OC(C)(C)C)CC2	189 to 191 °C
CC(=O)c1sc(Nc2cc[nH]n2)nc1C	224 to 227 °C
CC(C)(C)OC(=O)N1C2CCC1CN(CC(O)COc1ccc(C#N)cc1)C2 (stereo unspecified)	98 to 104 °C
Nc1nc(O)cc(NC2CC2)n1	229 °C
O=C(CCl)NCC1CCCCC1	85 to 86 °C
COC(=O)c1cc2c([N+](=O)[O-])csc2nc1C1=NC(C)(C(C)C)C(=O)N1 (stereo unspecified)	201 to 202 °C
N#Cc1ccc2c(c1)C(=O)c1cc3c(cc1OC2)OCO3	217 to 220 °C
Cn1[nH]c(=O)n(-c2ccc(Cl)cc2F)c1=S	75 °C
CSc1c(C)[nH]c2cccc([N+](=O)[O-])c12	148 to 150 °C
O=C(N[C@H]1CC[C@H](CCN2CCN(c3nccc4c3CCO4)CC2)CC1)C1CCC1	202 °C
CCCn1c(COCC)nc2c(N)nc3ccc(OC4CCN(C(=O)OC(C)(C)C)CC4)cc3c21	180 to 181 °C
Cc1ccc2c(cc(C(=O)O)n2CCCC#N)c1C	175 °C
CN(C)c1cc(C(=O)CS(C)(=O)=O)cc(N(C)C)c1	151 to 153 °C
CCOCC(=O)Nc1nc(-c2ccco2)c(C(=O)C2CCOCC2)s1	121 to 126 °C
CN(C)c1c(Br)cc2c3c(cccc13)C(=O)N(O)C2=O	185 to 187 °C
CC(C)(C)c1ccc(C(=O)CCC(=O)O)cc1	117 to 120 °C
CC(C)(C)OC(=O)Nc1cc(N)cc(Cl)c1	85 to 87 °C
O=C(NCc1ccccn1)OCCOCCOC(=O)NCC1CCCCC1	65 to 67 °C
CCOC(=O)c1cc(S)n2c(C)nnc2n1	206 to 208 °C
Cc1c(Cl)cc(C(=O)O)c(Cl)c1N	218 to 221 °C
O=C(O)c1ccc(Cl)c2c1NCCS2	220 °C
Cc1ccc(SCC(=O)O)o1	35 to 36 °C
COc1nc(N)nc2nc(/C=C3/CC3(CO)CO)[nH]c12	188 to 189 °C
COC(=O)c1coc(-c2ncn3c2CN(C)C(=O)c2c(Cl)cccc2-3)n1	266 to 268 °C
COc1ccc(-c2cc(CN3CCNCC3)c(=O)n(CC3CC3)n2)cc1F	112 to 118 °C
CCc1cc(CO)nn1-c1ccc([N+](=O)[O-])cc1	151 to 152 °C
CN(C)S(=O)(=O)c1cc([N+](=O)[O-])ccc1Cl	138 to 140 °C

Second part, the compound after the results:

melting point	Structure (SMILES)
181 to 182 °C	CC(Oc1ccc(-n2cnc3cc(C(F)(F)F)ccc32)cc1)C(=O)O (stereo unspecified)
> 65 °C	COc1ccc(Cn2ncc3c4c(cnc32)CN(C(=O)Nc2ccccc2)CC4)cc1
158 to 161 °C	O=C(N[C@@H](Cc1ccc(OCCc2coc(-c3ccccc3)n2)cc1)C(=O)O)c1ccc(Cl)cc1
113 to 115 °C	COc1ccc2c(c1)c(CC(=O)O)c(C)n2C(=O)c1ccc(F)c(F)c1
128 to 130 °C	CCCc1nc(C(O)C(C)(C)C)c(C(N)=O)n1Cc1ccc(-c2ccccc2C(=O)C(=O)O)cc1 (stereo unspecified)
133 to 135 °C	CC(C)(C)c1cc2ncnn2nc1OCCN1CCC(OC(c2ccccc2)c2ccccc2)CC1
120 °C	O=c1ncc(C(F)(F)F)cn1COCc1ccc(Cl)cc1
166 °C	c1ccc2c(c1)CCn1ccnc1C2=C1CCN(CCn2cccc2)CC1
207 °C	O=C1CCC(c2ccccc2)(c2ccccc2)[C@@H]2CN(C(=O)Cc3ccccc3C(F)(F)F)C[C@H]12 (racemic)
162 to 167 °C	CC(=O)c1ccc(S(=O)(=O)NCc2ccncc2)cc1
113 to 114 °C	O=C(O)CCOc1cccc2c1Cc1sc(SCCC(c3ccccc3)c3ccccc3)nc1-2
140 °C	CS(=O)(=O)C(=C1CN(C(c2ccccc2)c2ccccc2)C1)c1cccc(C(N)=O)c1
171 to 172 °C	Brc1ccc(C=Cc2cc3ccccc3s2)s1
114 to 115 °C	COC(=O)c1cc(C(C)=O)c(OCc2ccccc2)cc1OCc1ccccc1
208 to 210 °C	CCOC(=O)COc1ccccc1C(=O)Nc1ccc(O)cc1
138 to 145 °C	CP(=O)(O)C(CCc1ccccc1)NC(=O)C(F)(F)F (stereo unspecified)
118 to 119 °C	CC1(C)C2CC=C(c3ccc(C(=O)N4Cc5cccn5Cc5ccccc54)cc3)C1C2 (stereo unspecified)
122 to 124 °C	CN(C)C(=O)C(C)(C)n1cc(Br)c(-c2ccccc2)n1
108 to 110 °C	O=C(O)C(Cc1ccccc1)Oc1ccc(-c2ccc(-c3c(Cc4ccc(O)c(O)c4)sc4ccccc34)cc2)cc1 (stereo unspecified)
215 to 218 °C	O=C(NCCCCN1CCN(C(c2ccccc2)c2ccccc2)CC1)c1cnc2cccc(O)c2c1O
79 to 80 °C	O=C(O)CCCC1C(=O)Nc2ccccc21 (stereo unspecified)

melting point	Structure (SMILES)
90.5 to 92.3 °C	CC(=O)NC[C@H]1CN(c2ccc(-n3nccc3-c3cccc(Br)n3)c(F)c2)C(=O)O1
151 to 152 °C	COc1ccc(C(=O)N2c3ccc(OC)cc3CC2C(=O)O)cc1 (stereo unspecified)
289 to 290 °C	O=C(O)c1ccccc1Sc1cccc2c1C(=O)NC2=O
218 to 221 °C	Cc1c(CCc2ccc3nc(N)oc3c2)nc2cc(CN)ccn12
110 to 112 °C	O=C(CCC(=O)c1ccccc1)NCc1ccccc1
40 to 50 °C	CC(C)(C)OC(=O)NC(N)Cc1ccccc1 (stereo unspecified)
121 to 122 °C	CCOC(=O)C1Cc2sc(N)c(C(=O)c3ccccc3Cl)c2C1 (stereo unspecified)
159 to 160 °C	COc1ccc2c(c1)cc(Cc1cc3cc(OC)ccc3n1S(=O)(=O)c1ccccc1)n2S(=O)(=O)c1ccccc1
74 to 77 °C	CC1(C)CN(Cc2cc(F)ccc2F)c2cc(-c3ccc(C(=O)N4CCC[C@H]4CN4CCCC4)cc3)cnc2N1
132 to 133 °C	O=C(O)COc1nn(Cc2ccccc2)cc1-c1ccccc1
169 to 170 °C	O=C(Nc1ccccn1)c1c(OC(F)F)ccc2oc3ccc(C(F)(F)F)cc3c12
118 to 121 °C	Nc1ncc2c(n1)CCC(CNC(=O)[C@@H]1CCCN1C(=O)[C@@H](Cc1ccccc1)NS(=O)(=O)Cc1ccccc1)C2 (stereo partly specified)
200 to 203 °C	O=C(CN1CCC(CCc2ccccc2)CC1)Nc1ccc2c(c1)OCC(=O)N2
202 to 203 °C	Oc1ccc(-c2nnc(Cc3ccc(Oc4ccccc4)cc3)o2)cc1
108 °C	COc1ccc(Nc2ccc(OCc3ccccc3)cc2)cc1
219 to 221 °C	Cc1nc2ccccc2n1-c1ccc(C(=O)N(C)C2CCNCC2)cc1
300 to 302 °C	O=C(Nc1ccc(-c2ncc(-c3ccc(NC(=O)C4CCCCCC4)cc3)[nH]2)cc1)c1c(F)c(F)c(F)c(F)c1F
137 to 138 °C	Cc1nc2cc3c(cc2s1)C1(CO3)C(=O)N(CCC(C)C)c2ccccc21 (stereo unspecified)
87 to 91 °C	Cc1cc2c(s1)Nc1ccccc1N=C2N1CCN(C)[C@@H](CCc2ccccc2)C1
80 to 83 °C	CSCCCn1nc(-c2cccc(C(F)(F)F)c2F)c(=O)c2ccccc21
155 to 158 °C	CC(C)Cc1ccc(C2(C)Oc3ccc(C(=O)c4c[nH]c5ccccc45)cc3O2)cc1 (single isomer, unassigned; (-))
